According to paper PMC6649662, “A molecular basis of human T cell receptor autoreactivity toward self-phospholipids” (Science immunology, 2017):

Columns and labels:
CD1b (CD1b-β2m) [1] = biological target: T1, CD1b (CD1b-β2m) (Homo sapiens, UniProt P29016); test: X-ray crystal structure; conditions: antigen-binding cleft, with scaffold lipids; weak density for head group
T1 construct: soluble, transmembrane-truncated CD1b with β2m; from HEK 293S GnTI- or Trichoplusia ni High Five cells; lipid-loaded and purified; with Beta-2-microglobulin

CD1b (CD1b-β2m) [2] = biological target: T1, CD1b (CD1b-β2m); test: lipid loading, isoelectric focusing shift and anion exchange purification; assay type: binding; conditions: loaded in vitro

SMILES	X-ray crystal structure (CD1b (CD1b-β2m) [1])	lipid loading, isoelectric focusing shift and anion exchange purification (CD1b (CD1b-β2m) [2])
CCCCCCCC/C=C\CCCCCCCC(=O)O[C@H](COC(=O)CCCCCCCCCCCCCCC)COP(=O)(O)O [PA, phosphatidic acid]	structures of the PG90 TCR and the CD1b-PS and CD1b- PA complexes	–
CCCCCCCC/C=C\CCCCCCCC(=O)O[C@H](COC(=O)CCCCCCCCCCCCCCC)COP(=O)(O)OCCN [PE, phosphatidylethanolamine]	–	phospholipids are loaded into CD1b at high occupancy and purified to homogeneity
CCCCCCCC/C=C\CCCCCCCC(=O)O[C@H](COC(=O)CCCCCCCCCCCCCCC)COP(=O)(O)O[C@@H]1[C@H](O)[C@H](O)[C@@H](O)[C@H](O)[C@H]1O [PI, phosphatidylinositol]	–	phospholipids are loaded into CD1b at high occupancy and purified to homogeneity
CCCCCCCC/C=C\CCCCCCCC(=O)O[C@H](COC(=O)CCCCCCCCCCCCCCC)COP(=O)(O)OC[C@H](N)C(=O)O [PS, phosphatidylserine]	structures of the PG90 TCR and the CD1b-PS and CD1b- PA complexes	–
